{"source": "patent US20090203050A1", "about": "(The Regents of the University of California, priority 2005, published 2009)", "key": {"Ramos-RR1": {"test_system": "Ramos-RR1", "assay": "DNA fragmentation (PI) apoptosis assay, Ramos-RR1", "procedure": "(§1) Percentage of apoptotic cells was determined by evaluation of propidium iodide (PI) stained preparations of cells using an EpicXL flow-cytometer. Cellular debris was excluded from analysis by raising the forward scatter threshold, and DNA content of the intact nuclei was recorded on a logarithmic scale (Nicoletti, I. et al., J. Immunol. Methods, 139:271-9 (1991)). Percent apoptosis is represented as percentage of hypodiploid cells accumulated at sub-G0 phase of cell cycle.\n(§2) Cells were left either untreated or pre-treated with DHMEQ (36), bortezomib (Goy, A. et al., Clin. Lymphoma, 4:230-7 (2004)) and PD098059 (Alessi, D. et al., J. Biol. Chem., 270:27489-94 (1995)). Escalating concentrations of various drugs were then added and the percentage of apoptosis was measured."}, "[1]": {"test_system": "2F7, Ramos and Daudi wild type and RR clones", "assay": "TRAIL-mediated apoptosis in B-NHL cell lines and RR clones (DNA fragmentation)", "format": "cell-based, human", "details": "inhibitor pretreatment 2 h, then TRAIL 18 h; rituximab-sensitive and -resistant cells", "source_text": "Patients with B-NHL respond initially to conventional chemotherapy and/or to immunotherapy with rituximab (alone or in combination with chemotherapy). However, patients develop resistance to these modalities and novel approaches are needed. TRAIL is a cytotoxic molecule that exerts selective anti-tumor cytotoxic activity with minimal toxicity to normal tissues. Further, TRAIL or agonist monoclonal antibody (mAb) to TRAIL receptors, DR4 and DR5, are currently being tested clinically. The present study investigated the sensitivity of B-NHL cell lines to TRAIL-mediated apoptosis using the AIDS-related NHL (ARL) B-cell line, 2F7, and the B-NHL cell lines, Ramos and Daudi. Also, to recapitulate various aspects of acquired rituximab-resistance, we have generated rituximab-resistant (RR) clones from the parental wild type (wt) cells. […] We then examined means to reverse […] resistance. We and others have reported that inhibition of NFκB activity can sensitize TRAIL-resistant tumor cells to TRAIL-induced apoptosis. […] Both the rituximab-sensitive and rituximab-resistant tumor cells were sensitized by these inhibitors, though higher concentrations were required for sensitization of the RR clones. […] Based on the findings, patients with resistant B-NHL can be treated with combination of TRAIL/anti-DR4 or DR5 mAb and NFκB inhibitors. Alternatively, these patients can be treated with agents that up-regulate TRAIL expression on host effectors (e.g., T cells, NK cells) in combination with NFκB inhibitors."}, "2F7RR1 clone": {"test_system": "2F7RR1 clone", "assay": "Chemotherapeutic drug-induced apoptosis in 2F7RR1", "format": "cell-based", "source_text": "(§3) Accordingly, we examined whether inhibition of Bcl-2 in 2F7RR1 can reverse chemoresistance. Since Bcl-2 is under the transcriptional regulation of NFκB, we examined the effect of the NF-κB inhibitors Bortezomib and DHMEQ (Kikuchi, et al., Cancer Research, 63:107 (2003)).\n(§4) The mechanism by which B-NHL patients resist treatment is not known. […] We examined the effect of various chemical inhibitors of this signaling pathway on chemosensitization."}, "[2]": {"test_system": "p38MAPK/NF-κB/YY1/STAT3 signaling pathways, Bcl-2", "assay": "Molecular analysis of signaling in 2F7RR1", "format": "cell-based", "details": "2F7-RR1", "source_text": "as §3, §4"}, "Daudi-RR1": {"test_system": "Daudi-RR1", "assay": "DNA fragmentation (PI) apoptosis assay, Daudi-RR1", "procedure": "as §1, §2"}, "RR clones": {"test_system": "RR clones", "assay": "DNA fragmentation apoptosis assay, RR clones (pooled statements)", "format": "cell-based, human", "details": "drugs e.g. Paclitaxel, Vincristine, VP-16, CDDP, Adriamycin", "procedure": "Thus, we examined if such sensitizing agents can reverse the resistance in the RR clones.\nas §1, §2"}, "NF-κB and AP-1 DBA": {"test_system": "NF-κB and AP-1 DBA", "assay": "EMSA in RR clones", "format": "cell-based, human", "procedure": "FIG. 8. […] A. Total cell lysates (40 μg) were subjected to western blot analysis using phospho-specific Abs for various components of the NF-κB and ERK1/2 pathways. B. The kinase activity of the IKK complex using IκB-α peptide (aa 1-50 including S^32/36) and ERK1/2 using MAPK kinase substrates 4 (aa 172-192) using immune-complex kinase assay. C. […] 10 μg of nuclear lysates were subjected to EMSA (n=2) (19, 20).\nThe DBAs were evaluated using biotin-labeled oligonucleotide AP-1 (5′-[…]-3′) (Lee, W et al., Cell, 49:741-52 (1987)) and NF-κB (5′-[…] […]-3′) probes (Harada, H. et al., Mol. Cell Biol., 14:1500-9 (1994)) using EMSA kit (Panomics, Inc., Redwood City, Calif.) according to manufacturer's instructions. 10 μg of nuclear extracts were subjected to […] 5% PAGE and developed (Jazirehi, A. et al., Cancer Research, 64:7117-26 (2004); Jazirehi, A. et al., Cancer Research, 65:264-76 (2005)).\nNext, alterations in the DBA of NF-κB and AP-1 in the clones were examined."}, "[3]": {"test_system": "PI3K/Akt signaling pathway in Ramos", "assay": "Western blot of phosphorylated and unphosphorylated Akt / NF-κB pathway proteins in Ramos", "format": "cell-based, human", "details": "rituximab 138 nM or (Fab′)2, 20 h", "quoted_text": "After stimulation, cells (2×10^6 cells) were collected and resuspended with lysis buffer (20 mM Tris-HCl (pH 8.0), 2 mM EDTA, 3% NP-40, 100 mM NaCt, 50 mM NaF, 1 uM PMSF, 1 uM VO4, 5 ug/ml aprotinin, 5 ug/ml leupeptin). After 30 min of incubation on ice, samples were centrifuged at 10,000×g, for 10 min at 4° C. to remove cellular debris. […] The membranes were blocked for 30 min with 5% non-fat dry milk diluted in 0.05% Tween-20 Tris-buffered saline at room temperature and incubated overnight with the primary antibodies. After incubation with the primary antibody against Akt (1:300), Bad, PDK1, (1:500), phospho-specific antibodies against phospho-Akt (Ser 473, Thr 308) (1:300), phospho-PDK1 and phospho-Bad (Serl 36) (both 1:300) for overnight, the membranes were washed and incubated with HRP-coupled secondary antibodies (Cell Signaling, MA, USA). Immunoreactive bands were detected using an enhanced chemiluminiscence system (Amersham Pharmacia Biotech, UK)."}, "Ramos cells": {"test_system": "Ramos cells", "assay": "PI flow cytometry apoptosis, chemosensitization of Ramos", "format": "cell-based, human", "details": "pretreatment then CDDP 15 μg/ml 24 h", "quoted_text": "The cells were then washed and fresh medium was added and seeded into 12 well plates (Costar, Cambridge, Mass.). Indicated concentrations of drugs (CDDP, ADR) were then added, and the cells were incubated for another 24 h for maximal cytotoxicity. At the end of the incubation period, the cells were harvested and subjected to propidium iodide (PI) (Molecular Probes, Leiden, Netherlands) staining according to the specifications of the PI staining kit (Roche Diagnostics Corporation, Indianapolis, Ind.) and evaluated by flow cytometric analysis. LY294002 was dissolved in DMSO (Sigma-Aldrich) and added up to 50 uM.\nDNA fragmentation was detected by flow cytometric analysis after propidium iodide staining (Alas, S. et al., Cancer Res., 61:5137-44 (2001)). Cells with fragmented DNA were considered as apoptotic. […] Fluorescence was measured on a FACScan flow cytometer (BD Immunocytometry Systems) within 1 h. […] Cellular debris were excluded from analysis by raising the forward scatter threshold, and the DNA content of the intact nuclei was recorded on a logarithmic scale. […]\nRamos B-NHL cells were cultured in 1 ml of Opti-MEM medium without antibiotics and FBS. […] To determine Akt siRNA-induced sensitization to CDDP-induced apoptosis, following transfection the cells were treated with CDDP for 24 h, then fixed and permeabilized for PI staining, and analyzed by flow cytometry as described above."}}, "note": "“Also recorded” adds a separate entry of the source."}
{"compound": "O=C(NC1=CC(=O)[C@H]2O[C@H]2[C@H]1O)c1ccccc1O", "note": "[DHMEQ, dehydroxymethylepoxyquinomicin]", "values": [{"measurement": "enhanced cytotoxicity of drugs by inhibitor", "setting": "Ramos-RR1", "result": "2.3-5.1 folds"}, {"measurement": "apoptosis, DHMEQ alone", "setting": "Ramos-RR1; Ramos-RR1, DHMEQ 20 μg/ml", "result": "10.1±2.1", "unit": "%"}, {"measurement": "sensitization to TRAIL-induced apoptosis", "setting": "[1]", "result": "significant augmentation of apoptosis and synergy was achieved"}, {"measurement": "chemosensitization to drug-induced apoptosis (taxol, vincristine, ADR, CDDP, VP16)", "setting": "2F7RR1 clone", "result": "reversal of resistance; also recorded: significantly sensitized"}, {"measurement": "effect on NF-kB, YY1 and Bcl-2 expression", "setting": "[2]", "result": "inhibition of NF-kB, YY1 and downregulated Bcl-2 expression"}, {"measurement": "enhanced cytotoxicity of drugs by inhibitor", "setting": "Daudi-RR1", "result": "1.4-3.3 folds"}, {"measurement": "apoptosis, DHMEQ alone", "setting": "Daudi-RR1; Daudi-RR1, DHMEQ 20 μg/ml", "result": "4.9±1.6", "unit": "%"}, {"measurement": "sensitization of RR clones to various chemotherapeutic drugs", "setting": "RR clones", "result": "sensitized"}, {"measurement": "NF-κB and AP-1 DBA (EMSA)", "setting": "NF-κB and AP-1 DBA", "result": "preferentially reduced"}]}
{"compound": "Rituximab (Fab′)2: Fc-devoid Rituximab (Fab′)2", "values": [{"measurement": "effect on p-Akt (western)", "setting": "[3]", "result": "also inhibited p-Akt like rituximab"}, {"measurement": "sensitization to CDDP-induced apoptosis", "setting": "Ramos cells", "result": "sensitize the cells significantly"}]}
